Each compound was assayed on influenza A virus A/Aichi/2/68 (H3N2) on MDCK cells (assay: Cytopathic effect (CPE) assay). Conditions: not given.
Format: cell-based

SMILES	CPE result in words
CNC(=O)c1nc(Cc2ccccc2-c2ccccc2)nc(O)c1O	inactive
CNC(=O)c1nc(Cc2ccccc2-c2ccccc2)n(C)c(=O)c1O	inactive
CC(C)NC(=O)c1nc(Cc2ccccc2-c2ccccc2)n(C)c(=O)c1O	inactive
O=C(O)c1nc(Cc2ccccc2Br)nc(O)c1O	inactive
COC(=O)c1nc(CC2CCCCC2)n(C)c(=O)c1O	inactive
Cn1c(NS(=O)(=O)Cc2ccc(Cl)cc2)nc(C(=O)O)c(O)c1=O	inactive
NC(=O)c1nc(Cc2ccc(F)cc2Br)nc(O)c1O	inactive
CCOC(=O)c1nc(CC2CCCCC2)nc(O)c1O	inactive
COC(=O)c1nc(Cc2ccccc2Br)nc(O)c1OC(C)=O	inactive
COC(=O)c1nc(Cc2ccc(F)cc2Br)nc(O)c1O	inactive
Cn1c(Cc2ccccc2-c2ccccc2)nc(C(N)=O)c(O)c1=O	inactive
O=C(O)c1nc(Cc2ccccc2-c2ccccc2)nc(O)c1O	inactive
CNC(=O)c1nc(Cc2ccccc2-c2cc(C)ccc2C)nc(O)c1O	inactive
O=C(O)c1nc(Cc2ccc(F)cc2Br)nc(O)c1O	inactive
O=C(NCc1ccc(Cl)cc1)c1nc(Cc2ccccc2Br)nc(O)c1O	inactive
O=C(NCc1ccc(F)cc1)c1nc(Cc2ccccc2Br)nc(O)c1O	inactive
O=C(O)c1c(O)c(=O)nc(Cc2ccccc2Br)n1Cc1ccccc1	inactive
Cn1c(Cc2ccccc2-c2ccccc2)nc(C(=O)O)c(O)c1=O	inactive
CNC(=O)c1nc(CC2CCCCC2)nc(O)c1O	inactive
O=C(O)c1nc(CC2CCCCC2)nc(O)c1O	inactive

SMILES	CPE result in words
Cc1ccccc1Cc1nc(O)c(O)c(C(=O)O)n1	inactive
COC(=O)c1c(O)c(=O)nc(Cc2ccccc2)n1Cc1ccccc1	inactive
Cn1c(CC2(c3ccccc3)CCCC2)nc(C(=O)O)c(O)c1=O	inactive
CNC(=O)c1nc(NS(=O)(=O)Cc2ccccc2)n(C)c(=O)c1O	inactive
CNC(=O)c1nc(NS(=O)(=O)Cc2ccc(C)cc2)n(C)c(=O)c1O	inactive
O=C(O)c1nc(CC(c2ccccc2)c2ccccc2)nc(O)c1O	inactive
CNC(=O)c1nc(Cc2ccccc2Br)nc(O)c1O	inactive
CNC(=O)c1nc(NS(=O)(=O)Cc2cccc(C)c2)n(C)c(=O)c1O	inactive
O=C(O)c1c(O)c(=O)nc(Cc2ccccc2)n1Cc1ccccc1	inactive
COC(=O)c1nc(Cc2ccccc2-c2ccccc2C)nc(O)c1O	inactive
O=C(NCc1ccccc1)c1nc(CC2(c3ccccc3)CCCC2)nc(O)c1O	inactive
O=C(NCc1ccccc1)c1nc(Cc2ccccc2-c2ccccc2)nc(O)c1O	inactive
O=C(O)c1nc(Cc2cc(C(F)(F)F)ccc2Br)nc(O)c1O	inactive
O=C(NCc1ccc(Cl)cc1)c1nc(Cc2ccccc2-c2ccccc2)nc(O)c1O	inactive
CNC(=O)c1nc(NS(=O)(=O)Cc2ccc(Cl)cc2)n(C)c(=O)c1O	inactive
Cc1cccc(-c2ccccc2Cc2nc(O)c(O)c(C(=O)O)n2)c1	inactive
CCOC(=O)c1nc(Cc2cncn2Cc2ccccc2)nc(O)c1O	inactive
Cc1ccccc1-c1ccccc1Cc1nc(O)c(O)c(C(=O)O)n1	inactive
Cc1ccc(C)c(-c2ccccc2Cc2nc(O)c(O)c(C(=O)O)n2)c1	inactive

Same assay, conditions: Influenza A virus, H3N2, MDCK, in Canis lupus familiaris, 48 h

SMILES	IC50 [µM]
O=C(c1nc(Cc2ccccc2-c2ccccc2)nc(O)c1O)N1CCCC1	89
O=C(NCc1ccc(F)cc1)c1nc(Cc2ccccc2-c2ccccc2)nc(O)c1O	10
O=C(NCCc1ccccc1)c1nc(Cc2ccccc2-c2ccccc2)nc(O)c1O	8
CNC(=O)c1nc(CC2(c3ccccc3)CCCC2)n(C)c(=O)c1O	11
COC(=O)c1nc(Cc2ccccc2-c2cc(C)ccc2C)nc(O)c1O	16
COC(=O)c1nc(CC2(c3ccccc3)CCCC2)nc(O)c1O	12
CC(C)NC(=O)c1nc(Cc2ccccc2-c2ccccc2)nc(O)c1O	23
NC(=O)c1nc(CC2(c3ccccc3)CCCC2)nc(O)c1O	42
Cc1ccc(C)c(-c2ccccc2Cc2nc(O)c(O)c(C(=O)OC(C)(C)C)n2)c1	0.11
COC(=O)c1c(O)c(=O)nc(Cc2ccccc2Br)n1Cc1ccccc1	34
CNC(=O)c1nc(CC2(c3ccccc3)CCCC2)nc(O)c1O	22
CCOC(=O)c1nc(Cc2ccccc2-c2cc(C)ccc2C)nc(O)c1O	9.1
O=C(O)c1nc(CC2(c3ccccc3)CCCC2)nc(O)c1O	49
